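Following 48 hours of exposure in 96-well plates, responses at five concentrations were used to interpolate endpoints linearly. Definition used: TGI = concentration required for complete inhibition of growth.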
Key:
Assay in all cases: NCI-60 cell line screen, 48 h
[1] = tested on: M19-MEL melanoma
[2] = tested on: RXF-631 renal
[3] = tested on: SK-MEL-2 melanoma
[4] = tested on: HOP-62 NSCLC
[5] = tested on: A498 renal
[6] = tested on: TK-10 renal
[7] = tested on: XF 498 CNS
[8] = tested on: SF-295 CNS
[9] = tested on: IGROV1 ovarian
[10] = tested on: NCI-H226 lung
[11] = tested on: MALME-3M melanoma
[12] = tested on: DMS 273 small cell lung
[13] = tested on: SF-268 CNS
[14] = tested on: HOP-92 NSCLC
[15] = tested on: 786-0 renal
[16] = tested on: EKVX NSCLC
[17] = tested on: MOLT-4 leukemia
[18] = tested on: SK-OV-3 ovarian
[19] = tested on: K-562 leukemia
[20] = tested on: UO-31 renal
[21] = tested on: U251 CNS
[22] = tested on: COLO 205 colon
[23] = tested on: SNB-75 CNS
[24] = tested on: RPMI-8226 leukemia
[25] = tested on: HL-60(TB) leukemia
[26] = tested on: SNB-19 CNS
[27] = tested on: HOP-18 NSCLC
[28] = tested on: HCC-2998 colon
[29] = tested on: LXFL 529 NSCLC
[30] = tested on: SN12C renal
[31] = tested on: CAKI-1 renal
[32] = tested on: SNB-78 CNS
[33] = tested on: NCI-H23 lung
[34] = tested on: KM12 colon
[35] = tested on: SF-539 CNS
[36] = tested on: ACHN renal
[37] = tested on: SK-MEL-5 melanoma
[38] = tested on: NCI-H522 lung
[39] = tested on: UACC-62 melanoma
[40] = tested on: OVCAR-3 ovarian
[41] = tested on: CCRF-CEM leukemia
[42] = tested on: UACC-257 melanoma
[43] = tested on: HCT-15 colon
[44] = tested on: KM20L2 colon
[45] = tested on: DMS 114 small cell lung
[46] = tested on: LOX IMVI melanoma
[47] = tested on: NCI-H460 lung
[48] = tested on: HCT-116 colon
[49] = tested on: SK-MEL-28 melanoma
[50] = tested on: OVCAR-8 ovarian
[51] = tested on: HT29 colon
[52] = tested on: OVCAR-5 ovarian
[53] = tested on: DLD-1 colon
[54] = tested on: A549 NSCLC
[55] = tested on: OVCAR-4 ovarian
[56] = tested on: SW-620 colon
[57] = tested on: RXF 393 renal

CN(C)c1[se]nc2c1c(=O)n(C)c(=O)n2C
TGI [1]: > 100 µM | TGI [2]: > 100 µM | TGI [3]: > 100 µM | TGI [4]: > 100 µM | TGI [5]: > 100 µM | TGI [6]: > 100 µM | TGI [7]: > 100 µM | TGI [8]: > 100 µM | TGI [9]: > 100 µM | TGI [10]: > 100 µM | TGI [11]: > 100 µM | TGI [12]: > 100 µM | TGI [13]: > 100 µM | TGI [14]: > 100 µM | TGI [15]: > 100 µM | TGI [16]: > 100 µM | TGI [17]: > 100 µM | TGI [18]: > 100 µM | TGI [19]: > 100 µM | TGI [20]: > 100 µM | TGI [21]: > 100 µM | TGI [22]: > 100 µM | TGI [23]: > 100 µM | TGI [24]: > 100 µM | TGI [25]: > 100 µM | TGI [26]: > 100 µM | TGI [27]: > 100 µM | TGI [28]: > 100 µM | TGI [29]: > 100 µM | TGI [30]: > 100 µM | TGI [31]: > 100 µM | TGI [32]: > 100 µM | TGI [33]: > 100 µM | TGI [34]: > 100 µM | TGI [35]: > 100 µM | TGI [36]: > 100 µM | TGI [37]: > 100 µM | TGI [38]: > 100 µM | TGI [39]: > 100 µM | TGI [40]: > 100 µM | TGI [41]: > 100 µM | TGI [42]: > 100 µM | TGI [43]: > 100 µM | TGI [44]: > 100 µM | TGI [45]: > 100 µM | TGI [46]: > 100 µM | TGI [47]: > 100 µM | TGI [48]: > 100 µM | TGI [49]: > 100 µM | TGI [50]: > 100 µM | TGI [51]: > 100 µM | TGI [52]: > 100 µM | TGI [53]: > 100 µM | TGI [54]: > 100 µM | TGI [55]: > 100 µM | TGI [56]: > 100 µM

COc1ccc2c(c1)C1C(CO2)C(c2ccccc2)=NN1c1ccccc1 (stereo unspecified)
TGI [1]: > 100 µM | TGI [2]: > 100 µM | TGI [3]: > 100 µM | TGI [4]: > 100 µM | TGI [5]: > 100 µM | TGI [6]: > 100 µM | TGI [7]: > 100 µM | TGI [8]: > 100 µM | TGI [9]: > 100 µM | TGI [11]: > 100 µM | TGI [12]: > 100 µM | TGI [13]: > 100 µM | TGI [14]: > 100 µM | TGI [15]: > 100 µM | TGI [16]: > 100 µM | TGI [17]: > 100 µM | TGI [18]: > 100 µM | TGI [19]: > 100 µM | TGI [20]: > 100 µM | TGI [21]: > 100 µM | TGI [22]: > 100 µM | TGI [23]: 9.67 µM | TGI [24]: > 100 µM | TGI [25]: > 100 µM | TGI [27]: > 100 µM | TGI [57]: > 100 µM | TGI [28]: > 100 µM | TGI [29]: > 100 µM | TGI [32]: > 100 µM | TGI [33]: > 100 µM | TGI [34]: > 100 µM | TGI [35]: > 100 µM | TGI [36]: > 100 µM | TGI [37]: > 100 µM | TGI [38]: > 100 µM | TGI [40]: > 100 µM | TGI [41]: > 100 µM | TGI [42]: > 100 µM | TGI [44]: > 100 µM | TGI [45]: > 100 µM | TGI [46]: > 100 µM | TGI [47]: > 100 µM | TGI [48]: > 100 µM | TGI [49]: > 100 µM | TGI [50]: > 100 µM | TGI [51]: > 100 µM | TGI [52]: > 100 µM | TGI [53]: > 100 µM | TGI [54]: > 100 µM | TGI [56]: > 100 µM
